Assay results as given in ChEMBL document CHEMBL5131537 (J Med Chem, 2022).

Columns and labels:
[1] = Clearance in Sprague-Dawley rat at 1 mg/kg, iv measured after 0.083 to 24 hrs by LC-MS analysis; type: ADME, organism-based; conditions: in vivo, time 0.083-24 hrs
[2] = Cytotoxicity against human MT4 cells assessed as reduction in cell viability by MTT assay; type: toxicity, cell-based
Cytochrome P450 3A4 = Cytochrome P450 3A4 (Homo sapiens, UniProt P08684); assay: Inhibition of CYP3A4 in human liver microsomes using midazolam as substrate incubated for 15 to 45 mins in presence of NADPH
[3] = Acute toxicity in 12 hr fasted female CD-1(ICR) mouse assessed as behavioral abnormalities at 2 g/kg, IG administered as single dose measured after 14 days; conditions: in vivo, po, 2000 mg/kg, 336 h, time 14 day
[4] = MRT (0 to infinity) in Sprague-Dawley rat at 1 mg/kg, iv measured after 0.083 to 24 hrs by LC-MS analysis; type: ADME, organism-based; conditions: in vivo, time 0.083-24 hrs
Cytochrome P450 2C9 = Cytochrome P450 2C9 (Homo sapiens, UniProt P11712); assay: Inhibition of CYP2C9 in human liver microsomes using diclofenac as substrate incubated for 15 to 45 mins in presence of NADPH
[5] = Acute toxicity in 12 hr fasted female CD-1(ICR) mouse assessed as animal death at 2 g/kg, IG administered as single dose measured after 14 days; conditions: in vivo, po, 2000 mg/kg, 336 h, time 14 day
[6] = Acute toxicity in 12 hr fasted male CD-1(ICR) mouse assessed as animal death at 2 g/kg, IG administered as single dose measured after 14 days; conditions: in vivo, po, 2000 mg/kg, 336 h, time 14 day
[7] = Acute toxicity in 12 hr fasted male CD-1(ICR) mouse assessed as pathological damage in lung at 2 g/kg, IG administered as single dose measured after 14 days by H and E staining based analysis; type: tissue-based; conditions: in vivo, po, 2000 mg/kg, 336 h, time 14 day
in vitro = conditions: human, MT4 cells
Description: Selectivity index, ratio of CC50 for cytotoxicity against human MT4 cells to EC50 for antiviral activity against wild type HIV-1 IIIB infected in human MT4 cells

[8] = target: Human immunodeficiency virus type 1 reverse transcriptase (Human immunodeficiency virus 1, UniProt Q72547)
Description: Inhibition of HIV-1 reverse transcriptase using oligo(dT)16 as primer measured after 40 mins by picogreen-dye based spectrofluorometric analysis

[9] = AUC (0 to t) in Sprague-Dawley rat at 1 mg/kg, iv measured after 0.083 to 24 hrs by LC-MS analysis; type: ADME, organism-based; set-up: time upper 24 hrs, dose 1 mg/kg, time lower 0.083 hrs, route iv; conditions: in vivo
[10] = Acute toxicity in 12 hr fasted male CD-1(ICR) mouse assessed as pathological damage in spleen at 2 g/kg, IG administered as single dose measured after 14 days by H and E staining based analysis; type: tissue-based; conditions: in vivo, po, 2000 mg/kg, 336 h, time 14 day
[11] = Tmax in Sprague-Dawley rat at 5 mg/kg, po measured after 0.083 to 24 hrs by LC-MS analysis; type: ADME, organism-based; conditions: in vivo, time 0.083-24 hrs
[12] = test system: Human immunodeficiency virus 1; assay: Antiviral activity against HIV-1 IIIB harboring reverse transcriptase […] mutant infected in human MT4 cells by MTT assay; type: functional, organism-based; conditions: Human immunodeficiency virus 1, IIIB
[13] = Clearance in Sprague-Dawley rat at 5 mg/kg, po measured after 0.083 to 24 hrs by LC-MS analysis; type: ADME, organism-based; conditions: in vivo, time 0.083-24 hrs
[14] = test system: Human immunodeficiency virus 1; assay: Antiviral activity against HIV-1 IIIB harboring reverse transcriptase E138K mutant infected in human MT4 cells by MTT assay; type: functional, organism-based; conditions: Human immunodeficiency virus 1, IIIB
[15] = Acute toxicity in 12 hr fasted female CD-1(ICR) mouse assessed as pathological damage in liver at 2 g/kg, IG administered as single dose measured after 14 days by H and E staining based analysis; type: tissue-based; conditions: in vivo, po, 2000 mg/kg, 336 h, time 14 day
[16] = Oral bioavailability in Sprague-Dawley rat at 5 mg/kg measured after 0.083 to 24 hrs by LC-MS analysis; type: ADME, organism-based; conditions: in vivo, time 0.083-24 hrs

Sequence of Cytochrome P450 3A4 (P08684 whole entry): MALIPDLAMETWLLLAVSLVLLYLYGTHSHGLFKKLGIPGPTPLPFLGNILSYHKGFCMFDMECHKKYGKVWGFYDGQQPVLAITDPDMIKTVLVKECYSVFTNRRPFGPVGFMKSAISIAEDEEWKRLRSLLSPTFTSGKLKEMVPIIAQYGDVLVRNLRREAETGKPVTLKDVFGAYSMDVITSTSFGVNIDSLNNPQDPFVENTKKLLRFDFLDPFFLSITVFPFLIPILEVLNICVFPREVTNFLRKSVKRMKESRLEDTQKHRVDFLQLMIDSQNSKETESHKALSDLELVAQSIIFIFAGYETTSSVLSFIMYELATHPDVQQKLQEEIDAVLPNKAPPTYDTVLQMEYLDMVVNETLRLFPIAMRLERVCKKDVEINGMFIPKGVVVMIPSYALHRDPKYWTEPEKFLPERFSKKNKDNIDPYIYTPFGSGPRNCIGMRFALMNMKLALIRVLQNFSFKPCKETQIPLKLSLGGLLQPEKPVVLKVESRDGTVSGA
Sequence of Cytochrome P450 2C9 (P11712 whole entry): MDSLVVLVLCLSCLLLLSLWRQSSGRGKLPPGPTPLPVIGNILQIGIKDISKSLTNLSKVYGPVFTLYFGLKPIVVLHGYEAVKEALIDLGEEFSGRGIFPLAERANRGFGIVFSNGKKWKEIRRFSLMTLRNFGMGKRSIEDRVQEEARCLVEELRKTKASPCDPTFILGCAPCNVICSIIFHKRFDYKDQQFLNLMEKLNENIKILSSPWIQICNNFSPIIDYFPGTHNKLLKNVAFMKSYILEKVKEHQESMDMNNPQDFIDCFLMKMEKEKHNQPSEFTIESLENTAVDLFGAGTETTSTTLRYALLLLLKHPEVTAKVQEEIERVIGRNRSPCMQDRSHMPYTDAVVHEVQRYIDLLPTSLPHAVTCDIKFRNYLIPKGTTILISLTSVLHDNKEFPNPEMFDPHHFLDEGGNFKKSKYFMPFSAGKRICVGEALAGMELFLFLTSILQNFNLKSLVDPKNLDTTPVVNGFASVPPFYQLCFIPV

In the case of COc1cc(-c2ccc(C#N)cc2)ccc1Oc1cc(N)nc(Nc2ccc(C#N)cc2)n1, the clearance [1] is reported as 51.6 mL/min/kg, the CC50 [2] is reported as 120000 nM and the IC50 (Cytochrome P450 3A4) is reported as over 50000 nM. The Activity [3] was “Non-Toxic”, the MRT inf [4] was 1.18 h and the IC50 (Cytochrome P450 2C9) was 5160 nM. For the same compound, the Activity [5] was “Non-Toxic”, the Activity [6] was “Non-Toxic” and the Activity [7] was “Non-Toxic”. For the same compound, the selectivity ratio (in vitro) was 63400, the IC50 [8] was 36 nM and the AUC(0-t) [9] was 326 ng·h/mL. For the same compound, the Activity [10] was “Non-Toxic”, the Tmax [11] was 0.83 h and the EC50 [12] was 19 nM. For the same compound, the CL/F [13] was 675 mL/min/kg, the EC50 [14] was 9 nM and the Activity [15] was “Non-Toxic”. The bioavailability [16] was 7.57%.
